How the values were obtained:
[1] = biological target: AOC1 (Homo sapiens (Human), UniProt P19801); assay: AOC1 biochemical assay (Amplex Red); settings: comparison table, unit μM; read-out: IC50 AOC1
Method: The Amplex® Red Assay (available from Thermo Fisher Scientific) provides a sensitive method for the detection of H2O2 generated during enzymatic reactions like the amine oxidation catalyzed by AOC1. The assay reagent is a colorless substrate (N-acetyl-3,7-dihydroxyphenoxazine) that reacts in a 1:1 stoichiometry with hydrogen peroxide (H2O2) to produce the fluorescent dye resorufin (7-hydroxyphenoxazin-3-one, excitation/emission maxima=570/585 nm).
An aliquot of 3 μL of the compound dilution is added to a 384 well plate (Optiplate, PS, flat bottom F, black, PERKIN ELMER, #6007270) in a DMSO concentration of 6.6%.
An AOC1 enzyme aliquot (#8297-AO-010, R&D Systems) is thawed on ice, diluted in reaction buffer and added in a volume of 7 μL to the wells to give a final assay concentration of 1 ng/well. After incubation of inhibitor and enzyme for 30 minutes at 37° C., the enzymatic reaction is started with the addition of 10 μL of Amplex® Red reaction mix (final assay concentration: 100 mM sodiumphosphate, 120 μM Amplex® Red reagent (#A22177 Molecular Probes), 1.5 U/mL Horseradish Peroxidase (#P8375 Sigma-Aldrich), 200 μM putrescine (#P7505 Sigma-Alrdich), 0.05% Pluronic F-127 (#P3000MP Sigma-Aldrich), pH 7.4, 37° C.).
After an incubation for 30 minutes at 37° C. the turnover of the substrate is determined directly (or after the addition of an excess of an amine-oxidase inhibitor) with a fluorescence reader (Ex 540 nm/Em 590 nm) like Envision 2104 Multilabel Reader (PERKIN ELMER).

[2] = biological target: AOC2 (Homo sapiens (Human), UniProt O75106); assay: AOC2 biochemical assay (Amplex Red)
Sequence of AOC2 (O75106 whole entry): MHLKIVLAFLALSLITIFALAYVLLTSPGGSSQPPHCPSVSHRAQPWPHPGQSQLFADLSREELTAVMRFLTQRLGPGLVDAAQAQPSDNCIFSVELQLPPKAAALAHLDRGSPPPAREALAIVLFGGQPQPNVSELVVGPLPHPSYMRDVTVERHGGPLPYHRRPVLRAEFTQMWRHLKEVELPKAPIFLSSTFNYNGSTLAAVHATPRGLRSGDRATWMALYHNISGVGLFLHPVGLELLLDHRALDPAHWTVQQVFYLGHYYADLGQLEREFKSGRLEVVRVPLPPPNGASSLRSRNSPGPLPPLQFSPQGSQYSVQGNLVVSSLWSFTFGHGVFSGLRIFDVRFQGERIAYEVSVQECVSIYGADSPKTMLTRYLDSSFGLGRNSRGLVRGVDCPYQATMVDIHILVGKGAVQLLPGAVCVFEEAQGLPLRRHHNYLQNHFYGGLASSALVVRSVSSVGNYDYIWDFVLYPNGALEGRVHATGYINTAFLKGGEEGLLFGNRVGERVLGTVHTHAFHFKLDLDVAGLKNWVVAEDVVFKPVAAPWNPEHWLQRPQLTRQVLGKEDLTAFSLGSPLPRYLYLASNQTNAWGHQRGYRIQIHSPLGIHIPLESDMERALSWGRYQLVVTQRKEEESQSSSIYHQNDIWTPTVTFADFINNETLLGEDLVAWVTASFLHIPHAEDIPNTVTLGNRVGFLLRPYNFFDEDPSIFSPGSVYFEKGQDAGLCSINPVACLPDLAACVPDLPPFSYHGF
Method: An aliquot of 5 μL of the compound dilution is added to a 96 well plate (flat bottom F, black, GREINER bio-one, #655900) in a DMSO concentration of 2%. […] Cells are cultured for 3 days in EMEM culture medium containing 10% FCS (#04-00-1A, Biological Industries). After washing twice with ice cold PBS, cells are lysed by mechanic homogenation and cleared supernatants are shock frozen in liquid nitrogen and stored at -80° C. […] An Aliquot of 45 μL is added to the compound dilution and incubated for 30 min at 37° C. The enzymatic reaction is started with the addition of 50 μL of Amplex® Red reaction mix (final assay concentration: 100 mM sodiumphosphate, 120 μM Amplex® Red reagent (#A22177 Molecular Probes), 1.5 U/mL Horseradish Peroxidase (#P8375 Sigma-Aldrich), 2 mM phenylethylamine (#[…] Sigma-Aldrich), 0.05% Pluronic F-127 (#P3000MP Sigma-Aldrich), pH 7.4, 37° C.). The turnover per time of the substrate is determined directly with a fluorescence reader (Ex 540 nm/Em 590 nm) like Envision 2104 Multilabel Reader (PERKIN ELMER) for 60 min.

[3] = biological target: human AOC3 enzyme (Homo sapiens (Human), UniProt Q16853); assay: AOC3 biochemical assay (MAO-Glo); settings: comparison table; read-out: IC50 AOC3
Sequence of human AOC3 enzyme (Q16853 whole entry): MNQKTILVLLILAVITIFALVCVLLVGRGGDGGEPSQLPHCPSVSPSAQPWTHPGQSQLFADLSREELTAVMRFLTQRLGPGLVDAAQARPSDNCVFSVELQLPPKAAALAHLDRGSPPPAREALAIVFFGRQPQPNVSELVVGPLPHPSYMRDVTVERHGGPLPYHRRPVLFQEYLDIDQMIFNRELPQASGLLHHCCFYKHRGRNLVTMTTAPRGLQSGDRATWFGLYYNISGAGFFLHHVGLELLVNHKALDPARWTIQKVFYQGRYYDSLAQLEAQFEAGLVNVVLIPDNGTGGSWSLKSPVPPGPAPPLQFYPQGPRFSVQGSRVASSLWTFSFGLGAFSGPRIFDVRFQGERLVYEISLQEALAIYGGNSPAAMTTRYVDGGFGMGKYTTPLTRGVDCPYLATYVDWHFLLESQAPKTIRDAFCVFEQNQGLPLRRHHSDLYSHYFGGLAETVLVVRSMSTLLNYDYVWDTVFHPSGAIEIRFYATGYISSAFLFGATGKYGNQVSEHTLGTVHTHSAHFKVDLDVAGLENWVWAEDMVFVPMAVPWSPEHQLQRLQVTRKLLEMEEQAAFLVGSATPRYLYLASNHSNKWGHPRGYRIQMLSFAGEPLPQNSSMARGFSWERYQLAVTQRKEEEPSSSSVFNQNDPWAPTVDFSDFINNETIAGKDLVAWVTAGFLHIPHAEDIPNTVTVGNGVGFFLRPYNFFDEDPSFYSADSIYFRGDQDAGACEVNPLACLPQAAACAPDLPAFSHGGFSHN
Excerpt: The MAO-Glo™ Assay (commercially available from PROMEGA, #V1402) provides a sensitive method for the measurement of monoamine oxidase (MAO) activity (Valley, M. P. et al., 2006, Anal. Biochem. 359: 238-246) from a variety of tissues, biofluids or recombinant expressed or purified enzymes. As substrate a derivate of the beetle luciferin ((4S)-4,5-dihydro-2-(6-hydroxybenzothiazolyl)-4-thiazole-carboxylic acid) is used, which is oxidized at a primary amine moiety. After a spontaneous elimination and a catalyzed esterase reaction, the turnover of the luciferine by the luciferase is recorded as a signal of AOC3 activity.
An aliquot of 3 μL of the compound dilution is added to a 384 well plate (Optiplate, PS, flat bottom, white, PERKIN ELMER, #6007290) with a final DMSO concentration of 6.6%. Recombinant CHO cells, overexpressing the human (1500 cells/well), mouse (1000 cells/well) or rat (500 cells/well) AOC3 enzyme are diluted in reaction buffer and added in a volume of 15 μL to the wells. After incubation for 20 minutes at 37° C., 2 μL of MAO substrate (dissolved in DMSO at 16 mM, adjusted to assay concentration in reaction buffer to a final assay concentration of 20 μM) is added and further incubated for 60 minutes at 37° C. The turnover of the substrate is determined by the addition of 20 μL of the detection-mix which was generated by the addition of reconstitution buffer with esterase (PROMEGA, #V1402) to the luciferine detection reagent (PROMEGA, #V1402). After an incubation period of 20 minutes, the luminescent signal is measured with Envision 2104 Multilabel Reader (PERKIN ELMER).

Sequence of AOC1 (P19801 20-751): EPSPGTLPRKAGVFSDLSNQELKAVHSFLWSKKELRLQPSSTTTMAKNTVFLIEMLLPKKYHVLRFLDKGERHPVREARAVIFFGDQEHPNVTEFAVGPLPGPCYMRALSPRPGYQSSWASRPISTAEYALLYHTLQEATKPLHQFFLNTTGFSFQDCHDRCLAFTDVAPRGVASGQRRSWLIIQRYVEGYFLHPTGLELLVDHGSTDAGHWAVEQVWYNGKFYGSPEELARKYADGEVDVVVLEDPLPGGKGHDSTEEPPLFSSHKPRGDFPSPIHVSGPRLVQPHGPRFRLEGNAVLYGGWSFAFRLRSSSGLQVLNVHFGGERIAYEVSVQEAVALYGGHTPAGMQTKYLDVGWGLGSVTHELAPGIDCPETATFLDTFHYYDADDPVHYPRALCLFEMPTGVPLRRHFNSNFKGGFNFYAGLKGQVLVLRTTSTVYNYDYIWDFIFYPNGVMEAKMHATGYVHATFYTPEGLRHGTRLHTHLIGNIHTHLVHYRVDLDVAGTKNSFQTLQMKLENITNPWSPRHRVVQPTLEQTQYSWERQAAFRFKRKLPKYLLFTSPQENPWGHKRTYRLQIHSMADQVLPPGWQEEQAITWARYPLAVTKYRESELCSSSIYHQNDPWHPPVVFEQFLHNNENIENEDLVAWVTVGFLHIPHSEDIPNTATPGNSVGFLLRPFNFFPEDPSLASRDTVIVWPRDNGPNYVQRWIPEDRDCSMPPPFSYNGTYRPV

- IC50 [1]: > 50 µM
- fold less active against AOC2 as compared to AOC3 (ratio IC50 AOC2/IC50 AOC3) [2]: 22 fold
- IC50 ([2]; comparison table, read-out: IC50 AOC2): 287 nM
- IC50 [3]: 13 nM
Compound: COC1CN(S(=O)(=O)c2ccc(OC/C(=C/F)CN)cc2)C1 [Reference compound A, reference compound]
